According to BindingDB's records for doi:10.1038/nchembio.2168 (Novartis Institutes, 2016):

Assays:
[1] = target: T1, Serine/threonine-protein kinase WNK1 [1-491] (Homo sapiens, UniProt Q9H4A3); assay: In vitro MBP Phosphorylation Assay (MBP); details: pH 7.3; 25 °C
T1 construct: 1-491
Protocol: (§1) Each well of the MBP-coated ScintiPlates held 100 ul of a solution containing 20 mM HEPES pH 7.3, 5 mM MnCl2 (WNK1 and WNK4) or 3 mM MnCl2 (WNK2 and WNK3), 0.01% Tween-20 (WNK1, WNK3 and WNK4) or 0.02% Tween-20 (WNK2), 1 mM TCEP, 2% DMSO, 1 uM ATP (WNK1, WNK3 and WNK4) or 2 uM ATP (WNK2), 1 uCi [gamma-33P]ATP (WNK1, WNK2, WNK4) or 0.25 uCi [gamma-33P]ATP (WNK3), WNK kinase enzyme (5 nM WNK1, 10 nM WNK2, 5 nM WNK3 or 10 nM WNK4) and compound at the desired concentration. The plate was sealed with a clear adhesive cover and mixed for 20 s at 800 r.p.m. on a bench top plate shaker. The plate was then placed in a 25 °C shaking incubator at 175 r.p.m for 3 h (WNK1 and WNK4), 2 h (WNK3) or 1 h (WNK2). The kinase reaction was stopped by the addition of 50 ul of 45 mM EDTA, 0.01% Tween-20, and 20 mM HEPES, pH 7.3. The content of each well was then aspirated, and the well was washed three times with 300 ul of 150 mM NaCl, 0.02% Tween-20, and 50 mM Tris-HCl pH 7.4. Incorporation of 33P into the bound MBP substrate was measured using a MicroBeta TriLux LSC and Luminescence plate counter.

[2] = target: T2, Serine/threonine-protein kinase WNK1 [166-489] (Homo sapiens, UniProt Q9H4A3); assay: In vitro MBP Phosphorylation Assay (MBP); details: pH 7.3; 25 °C
T2 construct: 166-489
Protocol: as §1

[3] = target: T3, Serine/threonine-protein kinase WNK1 [1-444] (Homo sapiens, UniProt Q9H4A3); assay: In vitro MBP Phosphorylation Assay (MBP); details: pH 7.3; 25 °C
T3 construct: 1-444
Protocol: as §1

[4] = target: T4, Serine/threonine-protein kinase WNK1 [1-434] (Homo sapiens, UniProt Q9H4A3); assay: In vitro MBP Phosphorylation Assay (MBP); details: pH 7.3; 25 °C
T4 construct: 1-434
Protocol: as §1

[5] = target: T1, Serine/threonine-protein kinase WNK1 [1-491]; assay: In vitro OSR1 Phosphorylation Assay (OSR1); details: pH 7.3; 4 °C
Protocol: 0.2 nM GST-hWNK1(1-491) (Carna Biosciences, cat# 05-179); 3.5 ug/ml GST-OSR1; 20 mM HEPES; 0.01% Tween; 5 mM MnCl2; 1 mM TCEP; 2% DMSO; 0.5 uM ATP, pH 7.3 (total volume 40 ul) were incubated for 15 min at room temperature. Samples were […] mixed with Laemmli sample buffer and resolved on a 10% Tris-glycine gel, and transferred to nitrocellulose. Membranes were blocked in 5% non-fat milk dissolved in Tris-buffered saline with tween (TBST) for 30 min, washed 3x for 10 min in TBST and incubated with phospho-OSR1 antibody (1:1,000; see Reagents section) at […] overnight. Blots were again washed with TBST and incubated with HRP-conjugated anti-rabbit IgG (1:2,500; catalog # 7074, Cell Signaling) at room temperature for 30 min. Blots were again washed and developed with SuperSignal West Femto Maximum Sensitivity Chemiluminescent Substrate for HRP (Thermo Scientific), and quantified with a Fujifilm LAS-3000 Luminescent Image Analyzer.

T1 sequence (Q9H4A3 1-491): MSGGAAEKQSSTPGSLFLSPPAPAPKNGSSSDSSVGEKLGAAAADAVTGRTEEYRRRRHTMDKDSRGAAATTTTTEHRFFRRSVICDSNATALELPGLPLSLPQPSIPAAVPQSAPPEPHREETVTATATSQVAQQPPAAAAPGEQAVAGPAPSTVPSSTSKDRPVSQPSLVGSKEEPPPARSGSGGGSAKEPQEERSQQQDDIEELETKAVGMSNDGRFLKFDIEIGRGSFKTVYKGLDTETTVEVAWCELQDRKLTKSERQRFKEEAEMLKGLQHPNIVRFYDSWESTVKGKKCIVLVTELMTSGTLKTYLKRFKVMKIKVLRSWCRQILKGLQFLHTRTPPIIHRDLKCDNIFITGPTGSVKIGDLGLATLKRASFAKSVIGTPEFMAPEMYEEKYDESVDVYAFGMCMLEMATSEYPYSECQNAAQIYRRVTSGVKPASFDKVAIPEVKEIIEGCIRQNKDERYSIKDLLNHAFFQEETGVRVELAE
T3 sequence (Q9H4A3 1-444): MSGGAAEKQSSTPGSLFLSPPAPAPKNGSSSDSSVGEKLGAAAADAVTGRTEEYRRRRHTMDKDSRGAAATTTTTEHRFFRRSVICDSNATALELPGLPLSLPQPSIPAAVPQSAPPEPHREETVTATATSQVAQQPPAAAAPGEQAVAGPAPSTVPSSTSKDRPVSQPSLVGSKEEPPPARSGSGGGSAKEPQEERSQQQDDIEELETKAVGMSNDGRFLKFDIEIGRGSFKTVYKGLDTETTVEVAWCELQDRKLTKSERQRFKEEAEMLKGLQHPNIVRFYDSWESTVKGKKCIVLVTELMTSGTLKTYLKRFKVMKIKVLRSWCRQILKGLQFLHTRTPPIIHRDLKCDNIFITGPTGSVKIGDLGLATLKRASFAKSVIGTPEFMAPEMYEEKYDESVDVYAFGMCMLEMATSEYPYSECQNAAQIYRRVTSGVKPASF
T2 sequence (Q9H4A3 166-489): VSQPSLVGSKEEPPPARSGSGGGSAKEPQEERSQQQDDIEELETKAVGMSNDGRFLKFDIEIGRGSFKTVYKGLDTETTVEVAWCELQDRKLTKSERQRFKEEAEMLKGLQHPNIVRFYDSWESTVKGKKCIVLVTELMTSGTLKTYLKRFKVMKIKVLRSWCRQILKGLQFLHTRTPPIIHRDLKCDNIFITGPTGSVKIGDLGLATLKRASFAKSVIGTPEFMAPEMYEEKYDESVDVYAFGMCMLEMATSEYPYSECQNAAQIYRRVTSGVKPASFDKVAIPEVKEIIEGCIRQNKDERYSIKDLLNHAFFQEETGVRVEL
T4 sequence (Q9H4A3 1-434): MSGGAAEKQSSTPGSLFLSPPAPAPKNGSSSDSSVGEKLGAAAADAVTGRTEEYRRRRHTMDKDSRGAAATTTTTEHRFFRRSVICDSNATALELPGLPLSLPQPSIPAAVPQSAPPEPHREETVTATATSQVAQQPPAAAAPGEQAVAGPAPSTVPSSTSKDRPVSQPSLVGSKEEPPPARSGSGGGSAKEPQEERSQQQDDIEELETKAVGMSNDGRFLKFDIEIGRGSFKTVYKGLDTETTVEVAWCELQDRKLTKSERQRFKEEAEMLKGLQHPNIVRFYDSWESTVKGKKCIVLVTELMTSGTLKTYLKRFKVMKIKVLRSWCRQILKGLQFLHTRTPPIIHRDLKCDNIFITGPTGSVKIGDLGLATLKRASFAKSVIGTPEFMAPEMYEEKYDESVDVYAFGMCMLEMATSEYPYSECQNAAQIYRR

SMILES | IC50 [1] | IC50 [2] | IC50 [3] | IC50 [4] | IC50 [5]
COc1ccc(CC(=O)N2CCC(n3cncc3C(=O)NCCc3ccccc3)C2)cc1 [(R)-1-(1-(2-(4-methoxyphenyl)acetyl)pyrrolidin-3-yl)-N-phenethyl-1H-imidazole-5-carboxamide (1)] | 856 nM | – | – | – | –
CC(C)(C)NC(=O)c1cncn1C1CCN(c2ccc(-c3nnc(C(F)(F)F)o3)cc2)CC1 [WNK463 (2)] | 5 nM | 1 nM | 9 nM | 6 nM | 41 nM
